Consider two compounds from ChEMBL document CHEMBL1152878, “N-Hydroxy-1,2-disubstituted-1H-benzimidazol-5-yl acrylamides as novel histone deacetylase inhibitors: design, synthesis, SAR studies, and in vivo antitumor activity” (Bioorg Med Chem Lett, 2009).

Data set [1] is described as follows: Solubility at pH 6.5. In kind it is physicochemical. The settings on record: buffer.
Data set [2] can be described thus: Lipophilicity, log D at pH 7.3. In kind it is physicochemical. The note with it: buffer.
Data set [3] can be described thus: Cmax in mouse at 50 mg/kg, po. In kind it is ADME, organism-based. Further details: dose 50 mg/kg, route oral. The settings on record: in vivo.
Data set [4] concerns Mus musculus. As to the kind of experiment: Toxicity in athymic mouse xenografted with human HCT116 cells assessed as maximum body weight loss at 130 mg/kg, ip qd for 21 measured on day 19. It counts as organism-based, HCT-116. The settings on record: in vivo. More on the design: dose 130 mg/kg, route intraperitoneal. (In general: A xenograft is tissue or cells of one species grown in another, often human tumour cells in immunodeficient mice.)

For data set [5], the system named is Mus musculus. As to the kind of experiment: Toxicity in athymic mouse xenografted with human HCT116 cells assessed as maximum body weight loss at 70 mg/kg, ip qd for 21 days measured on day 15. It counts as organism-based, HCT-116. Further details: dose 70 mg/kg, route intraperitoneal. The settings on record: in vivo, 504 h.
For data set [6], the system named is Mus musculus. As to the kind of experiment: Toxicity in athymic mouse xenografted with human HCT116 cells assessed as maximum body weight loss at 100 mg/kg, po qd for 21 days. More on the design: dose 100 mg/kg, route oral. In kind it is organism-based, HCT-116. The settings on record: in vivo, 504 h.
The target of data set [7] is Histone deacetylase 3 (Homo sapiens, UniProt O15379). The data set is described as follows: Inhibition of recombinant HDAC3 by fluorimetric assay.
The subject of data set [8] is Mus musculus. As to the kind of experiment: Toxicity in athymic xenografted with human HCT116 cells mouse assessed as maximum body weight loss at 200 mg/kg, po qd for 21 days measured on day 7. In kind it is organism-based, HCT-116. More on the design: dose 200 mg/kg, route oral. The note with it: in vivo, 504 h.
Data set [9] deals with Histone deacetylase 4 (Homo sapiens, UniProt P56524). The data set is described as follows: Inhibition of recombinant HDAC4 by fluorimetric assay.
The nature of data set [10]: Toxicity in ip dosed athymic mouse assessed as maximum tolerated dose. The settings on record: in vivo. It counts as organism-based.
In data set [11] the target is T1, Protein deacetylase HDAC6 (Homo sapiens, UniProt Q9UBN7).
T1 sequence (Q9UBN7 whole entry): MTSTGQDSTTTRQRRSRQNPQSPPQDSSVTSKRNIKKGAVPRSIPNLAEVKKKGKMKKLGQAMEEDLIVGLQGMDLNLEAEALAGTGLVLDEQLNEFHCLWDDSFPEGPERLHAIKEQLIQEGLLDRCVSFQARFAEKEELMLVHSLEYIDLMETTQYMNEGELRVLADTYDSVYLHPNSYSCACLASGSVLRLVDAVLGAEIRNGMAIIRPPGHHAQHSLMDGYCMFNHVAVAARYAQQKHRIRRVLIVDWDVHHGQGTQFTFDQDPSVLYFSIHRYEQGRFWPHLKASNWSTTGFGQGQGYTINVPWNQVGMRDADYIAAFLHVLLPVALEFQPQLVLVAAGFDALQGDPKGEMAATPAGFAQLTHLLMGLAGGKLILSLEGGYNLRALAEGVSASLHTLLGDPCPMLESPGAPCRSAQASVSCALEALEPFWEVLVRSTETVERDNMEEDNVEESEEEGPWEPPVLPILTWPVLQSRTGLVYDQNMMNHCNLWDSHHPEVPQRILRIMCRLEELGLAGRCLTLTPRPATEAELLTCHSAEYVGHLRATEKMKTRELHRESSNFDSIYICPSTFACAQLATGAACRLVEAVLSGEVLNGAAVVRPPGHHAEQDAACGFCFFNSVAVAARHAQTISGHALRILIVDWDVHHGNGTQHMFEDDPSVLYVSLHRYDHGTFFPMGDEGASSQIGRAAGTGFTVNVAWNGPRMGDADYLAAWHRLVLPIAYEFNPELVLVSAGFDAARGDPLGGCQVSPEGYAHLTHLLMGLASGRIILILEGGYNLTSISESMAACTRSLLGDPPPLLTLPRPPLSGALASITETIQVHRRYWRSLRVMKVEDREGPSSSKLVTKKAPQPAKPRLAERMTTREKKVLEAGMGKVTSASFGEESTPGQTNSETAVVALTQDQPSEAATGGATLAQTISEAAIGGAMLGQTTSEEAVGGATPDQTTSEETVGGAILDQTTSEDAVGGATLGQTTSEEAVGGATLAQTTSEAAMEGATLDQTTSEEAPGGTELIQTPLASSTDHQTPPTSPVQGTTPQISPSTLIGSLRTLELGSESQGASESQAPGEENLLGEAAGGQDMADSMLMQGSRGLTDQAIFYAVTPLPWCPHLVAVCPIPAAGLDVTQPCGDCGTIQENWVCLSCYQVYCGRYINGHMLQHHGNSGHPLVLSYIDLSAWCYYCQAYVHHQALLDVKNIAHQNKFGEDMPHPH
The data set is described as follows: Inhibition of recombinant HDAC6 by fluorimetric assay.

For data set [12], the target named is T2, Histone deacetylase 8 (Homo sapiens, UniProt Q9BY41).
T2 sequence (Q9BY41 whole entry): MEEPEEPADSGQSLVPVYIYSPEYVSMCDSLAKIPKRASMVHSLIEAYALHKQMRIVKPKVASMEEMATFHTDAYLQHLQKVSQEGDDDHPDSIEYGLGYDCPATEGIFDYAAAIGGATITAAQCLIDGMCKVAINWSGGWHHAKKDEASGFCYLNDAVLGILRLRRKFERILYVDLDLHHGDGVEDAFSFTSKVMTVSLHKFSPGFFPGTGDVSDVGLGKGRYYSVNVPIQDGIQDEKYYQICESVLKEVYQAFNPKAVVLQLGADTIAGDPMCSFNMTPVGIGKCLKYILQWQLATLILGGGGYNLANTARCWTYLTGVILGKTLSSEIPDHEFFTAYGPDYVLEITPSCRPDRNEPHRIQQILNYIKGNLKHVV
The data set is described as follows: Inhibition of recombinant HDAC8 by fluorimetric assay.

Data set [13] deals with HCT-116. As to the kind of experiment: Antitumor activity against human HCT116 cells xenografted in athymic mouse assessed as tumor growth inhibition at 130 mg/kg, ip qd for 21 days measured on day 22. It counts as functional. The settings on record: HCT-116, ip, route intraperitoneal, read-out: TGI.
Data set [14] deals with HCT-116. As to the kind of experiment: Antitumor activity against human HCT116 cells xenografted in athymic mouse assessed as tumor growth inhibition at 200 mg/kg, po qd for 21 days measured on day 21. In kind it is functional. The note with it: HCT-116, 504 h, read-out: TGI.
The subject of data set [15] is HCT-116. As to the kind of experiment: Antitumor activity against human HCT116 cells xenografted in athymic mouse assessed as tumor growth inhibition at 70 mg/kg, ip qd for 21 days measured on day 22. It counts as functional. The note with it: HCT-116, ip, route intraperitoneal, read-out: TGI.
Data set [16] deals with Histone deacetylase 5 (Homo sapiens, UniProt Q9UQL6). As to the kind of experiment: Inhibition of recombinant HDAC5 by fluorimetric assay.
Data set [17] relates to HCT-116. The data set is described as follows: Antitumor activity against human HCT116 cells xenografted in athymic mouse assessed as tumor growth inhibition at 100 mg/kg, po qd for 21 days measured on day 21. In kind it is functional. The settings on record: HCT-116, 504 h, read-out: TGI.
Data set [18] can be described thus: Oral bioavailability in mouse at 50 mg/kg. In kind it is ADME, organism-based. The note with it: in vivo.
In data set [19] the target is Histone deacetylase 9 (Homo sapiens, UniProt Q9UKV0). As to the kind of experiment: Inhibition of recombinant HDAC9 by fluorimetric assay.
Data set [20] deals with T3, Histone deacetylase 11 (Homo sapiens, UniProt Q96DB2).
T3 sequence (Q96DB2 whole entry): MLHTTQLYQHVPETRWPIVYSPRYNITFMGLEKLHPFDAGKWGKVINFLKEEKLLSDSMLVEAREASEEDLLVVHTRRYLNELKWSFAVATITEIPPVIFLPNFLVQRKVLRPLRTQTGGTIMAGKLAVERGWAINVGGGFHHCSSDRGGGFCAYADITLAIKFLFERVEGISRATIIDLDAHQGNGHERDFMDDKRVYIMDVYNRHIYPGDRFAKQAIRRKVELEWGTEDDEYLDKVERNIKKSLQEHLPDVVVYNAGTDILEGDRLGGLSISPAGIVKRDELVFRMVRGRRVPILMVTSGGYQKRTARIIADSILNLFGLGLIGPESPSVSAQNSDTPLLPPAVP
The data set is described as follows: Inhibition of recombinant HDAC11 by fluorimetric assay.

In data set [21] the test system is COLO 205. As to the kind of experiment: Antiproliferative activity against human COLO205 cells after 96 hrs by celltiter assay. It counts as functional, cell-based. The settings on record: COLO 205, 96 h.

Chain of Histone deacetylase 5 (Q9UQL6 whole entry): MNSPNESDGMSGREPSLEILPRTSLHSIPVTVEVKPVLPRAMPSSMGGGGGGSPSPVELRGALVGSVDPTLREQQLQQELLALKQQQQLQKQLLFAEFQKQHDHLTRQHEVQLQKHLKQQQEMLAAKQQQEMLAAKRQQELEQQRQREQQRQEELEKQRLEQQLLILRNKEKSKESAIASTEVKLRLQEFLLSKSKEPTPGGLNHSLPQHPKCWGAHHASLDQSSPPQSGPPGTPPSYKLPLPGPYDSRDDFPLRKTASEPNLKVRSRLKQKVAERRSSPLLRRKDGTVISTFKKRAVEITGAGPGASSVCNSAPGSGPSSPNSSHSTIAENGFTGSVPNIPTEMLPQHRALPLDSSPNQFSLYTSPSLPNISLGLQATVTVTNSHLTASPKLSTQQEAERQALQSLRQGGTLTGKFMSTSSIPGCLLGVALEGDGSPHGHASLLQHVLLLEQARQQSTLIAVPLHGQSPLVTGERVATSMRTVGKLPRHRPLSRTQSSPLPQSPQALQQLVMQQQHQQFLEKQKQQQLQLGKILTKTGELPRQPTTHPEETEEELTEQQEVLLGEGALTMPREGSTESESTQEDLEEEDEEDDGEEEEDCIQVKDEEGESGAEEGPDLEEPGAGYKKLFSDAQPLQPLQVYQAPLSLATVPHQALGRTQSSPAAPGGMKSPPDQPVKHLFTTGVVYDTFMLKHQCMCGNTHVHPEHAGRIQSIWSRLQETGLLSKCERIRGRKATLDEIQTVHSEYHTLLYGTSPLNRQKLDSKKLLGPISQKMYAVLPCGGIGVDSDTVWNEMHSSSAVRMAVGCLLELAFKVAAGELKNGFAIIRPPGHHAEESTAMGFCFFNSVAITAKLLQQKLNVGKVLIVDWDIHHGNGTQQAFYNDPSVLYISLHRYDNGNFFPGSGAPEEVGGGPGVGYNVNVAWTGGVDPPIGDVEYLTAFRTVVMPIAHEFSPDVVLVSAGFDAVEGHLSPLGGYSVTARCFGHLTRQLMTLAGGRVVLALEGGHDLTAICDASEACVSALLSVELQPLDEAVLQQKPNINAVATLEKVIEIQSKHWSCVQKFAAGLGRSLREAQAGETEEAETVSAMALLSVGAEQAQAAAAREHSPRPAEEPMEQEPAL
Chain of Histone deacetylase 3 (O15379 whole entry): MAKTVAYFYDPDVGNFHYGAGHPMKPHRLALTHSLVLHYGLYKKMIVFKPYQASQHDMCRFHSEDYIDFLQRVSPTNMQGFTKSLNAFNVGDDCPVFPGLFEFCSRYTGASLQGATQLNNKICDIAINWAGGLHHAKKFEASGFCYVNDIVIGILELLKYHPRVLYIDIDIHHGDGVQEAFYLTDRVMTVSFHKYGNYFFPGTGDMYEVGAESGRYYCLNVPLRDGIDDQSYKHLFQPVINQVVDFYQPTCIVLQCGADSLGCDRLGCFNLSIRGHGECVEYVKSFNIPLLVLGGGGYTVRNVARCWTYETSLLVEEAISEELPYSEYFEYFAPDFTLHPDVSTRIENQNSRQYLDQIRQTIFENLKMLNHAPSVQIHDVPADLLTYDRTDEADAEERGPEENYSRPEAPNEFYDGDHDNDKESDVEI
Chain of Histone deacetylase 4 (P56524 whole entry): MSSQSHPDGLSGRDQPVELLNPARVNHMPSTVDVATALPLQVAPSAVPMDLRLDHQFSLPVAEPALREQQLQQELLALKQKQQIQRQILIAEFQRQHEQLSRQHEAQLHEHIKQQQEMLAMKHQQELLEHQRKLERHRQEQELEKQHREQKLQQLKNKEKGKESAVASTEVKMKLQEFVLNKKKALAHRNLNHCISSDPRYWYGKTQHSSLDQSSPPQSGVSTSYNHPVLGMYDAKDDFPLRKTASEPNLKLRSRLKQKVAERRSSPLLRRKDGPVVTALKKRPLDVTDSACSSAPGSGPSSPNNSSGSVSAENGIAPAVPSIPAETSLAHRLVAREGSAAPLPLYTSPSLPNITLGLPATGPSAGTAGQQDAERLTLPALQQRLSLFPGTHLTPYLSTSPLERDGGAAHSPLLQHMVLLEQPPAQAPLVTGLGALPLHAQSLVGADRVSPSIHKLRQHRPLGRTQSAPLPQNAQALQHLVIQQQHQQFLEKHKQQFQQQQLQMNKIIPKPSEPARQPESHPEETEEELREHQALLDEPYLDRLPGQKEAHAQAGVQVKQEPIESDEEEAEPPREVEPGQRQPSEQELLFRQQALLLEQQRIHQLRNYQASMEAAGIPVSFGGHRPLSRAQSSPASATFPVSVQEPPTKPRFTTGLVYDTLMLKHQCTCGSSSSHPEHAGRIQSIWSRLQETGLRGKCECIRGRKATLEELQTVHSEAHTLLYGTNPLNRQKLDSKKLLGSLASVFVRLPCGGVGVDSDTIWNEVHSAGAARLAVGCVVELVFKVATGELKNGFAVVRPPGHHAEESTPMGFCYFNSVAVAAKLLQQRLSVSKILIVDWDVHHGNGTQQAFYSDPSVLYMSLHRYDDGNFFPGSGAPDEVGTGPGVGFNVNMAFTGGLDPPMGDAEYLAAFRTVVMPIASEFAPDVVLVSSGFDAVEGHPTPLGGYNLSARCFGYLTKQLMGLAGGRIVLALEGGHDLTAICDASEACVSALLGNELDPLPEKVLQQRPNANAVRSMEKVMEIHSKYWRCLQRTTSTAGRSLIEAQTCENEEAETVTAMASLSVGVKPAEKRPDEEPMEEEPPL
Chain of Histone deacetylase 9 (Q9UKV0 whole entry): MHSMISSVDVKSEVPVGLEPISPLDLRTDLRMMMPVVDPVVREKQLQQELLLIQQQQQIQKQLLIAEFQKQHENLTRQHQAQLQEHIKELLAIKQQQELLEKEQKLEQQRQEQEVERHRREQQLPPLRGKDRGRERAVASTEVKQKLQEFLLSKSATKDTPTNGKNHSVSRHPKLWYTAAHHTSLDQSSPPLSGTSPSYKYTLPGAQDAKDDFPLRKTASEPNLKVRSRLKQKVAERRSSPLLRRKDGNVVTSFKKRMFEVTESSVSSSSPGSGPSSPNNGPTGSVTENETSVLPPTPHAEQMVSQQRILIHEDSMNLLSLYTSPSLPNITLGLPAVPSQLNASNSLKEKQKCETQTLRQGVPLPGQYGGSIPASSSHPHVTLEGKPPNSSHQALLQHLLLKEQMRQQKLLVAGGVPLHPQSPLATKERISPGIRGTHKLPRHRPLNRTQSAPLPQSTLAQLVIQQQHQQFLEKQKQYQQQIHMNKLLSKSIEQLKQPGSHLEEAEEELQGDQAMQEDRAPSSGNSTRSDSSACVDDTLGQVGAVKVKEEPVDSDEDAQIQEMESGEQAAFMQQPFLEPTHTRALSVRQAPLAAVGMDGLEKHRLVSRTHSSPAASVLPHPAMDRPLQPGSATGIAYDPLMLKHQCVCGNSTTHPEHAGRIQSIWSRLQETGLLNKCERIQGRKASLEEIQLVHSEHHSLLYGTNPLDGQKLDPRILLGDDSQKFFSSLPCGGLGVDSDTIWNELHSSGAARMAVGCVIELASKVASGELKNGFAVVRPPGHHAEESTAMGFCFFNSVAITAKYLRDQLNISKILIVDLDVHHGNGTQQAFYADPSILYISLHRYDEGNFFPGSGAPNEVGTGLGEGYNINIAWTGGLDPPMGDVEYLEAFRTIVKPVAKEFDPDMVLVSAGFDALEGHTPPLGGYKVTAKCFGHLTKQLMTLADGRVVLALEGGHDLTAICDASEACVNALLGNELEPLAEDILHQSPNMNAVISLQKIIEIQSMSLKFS

The solubility is the dissolved amount per volume that the medium holds. High values mean a readily soluble substance, low ones a poorly soluble substance. The term logD denotes lipophilicity at a set pH, counting ionised and neutral species. Take `Cl.O=C(/C=C/c1ccc2c(c1)nc(CCc1ccccc1)n2CCN1CCCC1)NO`: the solubility in data set [1] worked out at 1600 µg/mL. Moreover, in data set [2], the logD worked out at 2.1.

In general, Cmax refers to the highest concentration seen after dosing. What is called Ki is the dissociation constant of the complex between target and ligand, obtained from inhibition or displacement. One may read the MTD as the highest dose tested that stayed within the study's limit of toxicity. Broadly, the bioavailability is dose-corrected exposure relative to a reference, in per cent. Lower therefore signals little systemic uptake. For orientation: IC50 means the concentration that gives 50% inhibition. A high value points to a need for much substance. For `O=C(/C=C/c1ccc2c(c1)nc(CCc1ccccc1)n2CCN1CCCC1)NO`, the Cmax in data set [3] was 920 nM. The Activity in data set [4] is 8.7%; in data set [5], 0.5%; in data set [6] it was “Non-toxic”; in data set [8], 5.7%. The Ki in data set [7] stood at 12.5 nM; in data set [9], 9.6 nM; in data set [11] it was 20.6 nM; in [12], 82 nM; in data set [16], 17.2 nM; in data set [19], 19.2 nM. For the same compound, the Ki in data set [20] was found to be 12.8 nM. In data set [10], the MTD stood at 130 mg/kg. Also, the inhibition in vivo at 130 mg/kg in [13] stood at 89%. Moreover, in data set [14], the inhibition in vivo at 200 mg/kg came out at 78%. In addition, the inhibition in vivo at 70 mg/kg in data set [15] stood at 59%. Besides, in data set [17], the inhibition in vivo at 100 mg/kg was determined as 43%. Also, the bioavailability in [18] was 13%. In data set [21], this compound came in with an IC50 of 140 nM.
